Holding throughout (assay type): ADME, organism-based
Data set [1] relates to Homo sapiens. Description: (§1) Pharmacokinetic parameters for Valsartan following oral or intravenous administration of Valsartan solution. The conditions noted are these: in vivo, po, dosed compound id 15, dosed compound name VALSARTAN
Data set [2] in a line: as §1. The conditions noted are these: human, in vivo, dosed compound id 15, dosed compound name VALSARTAN, tissue Plasma.
Data set [3] in a line: Apparent clearance of Valsartan following oral administration of 40 to 160 mg Valsartan, twice a day, to heart failure patients. The conditions noted are these: human, in vivo, dose Range 40 to 160 mg, dosed compound id 15, dosed compound name VALSARTAN, regimen Every 12h, tissue Plasma, read-out: CL(app) (converted).

As to `CCCCC(=O)N(Cc1ccc(-c2ccccc2-c2nnn[nH]2)cc1)[C@H](C(=O)O)C(C)C` [VALSARTAN], in data set [1] (tissue Feces), the Excretion was determined as 83%. In addition, in data set [1] (tissue Urine), the Excretion worked out at 13%. In data set [2] (po), the Tmax lay within 2 to 4 h. In data set [2] (route iv), this compound showed a clearance of 33.3 mL/min and a half-life of 6 h. For the same compound, in data set [2] (route iv, read-out: CL_renal (converted)), the CL renal was 10.3 mL/min. In data set [2] (route iv, read-out: Vss), the Vd is 17 L. In addition, the CL/F in data set [3] was 75 mL/min.

In general, Tmax refers to the time at which the peak concentration occurs. Usually half-life stands for the time needed for the level to fall by half in the phase considered.

Source of the values: ChEMBL document CHEMBL3832039, “DailyMed|setid=8e4382de-df78-4821-b11e-c423442a7ff8 | DIOVAN - valsartan tablet|PD-Rx Pharmaceuticals, Inc”.
